Results: ChEMBL document CHEMBL5036307, “Antimalarial Quinacrine and Chloroquine Lose Their Activity by Decreasing Cationic Amphiphilic Structure with a Slight Decrease in pH” (J Med Chem, 2021)
Activity calls are given as the source filed them. The rule behind the calls is not given here.

Key:
Saccharomyces cerevisiae [1] = experiment: Antimicrobial activity against Saccharomyces cerevisiae BY4741 assessed as inhibition of microbial growth at pH 6 in presence of glucose measured after 48 hrs by visual analysis; assay type: functional
Saccharomyces cerevisiae [2] = experiment: Antimicrobial activity against Saccharomyces cerevisiae BY4741 assessed as inhibition of microbial growth at pH 7 in presence of glucose measured after 48 hrs by visual analysis; assay type: functional
Saccharomyces cerevisiae [3] = experiment: Antimicrobial activity against Saccharomyces cerevisiae BY4741 assessed as inhibition of microbial growth at pH 8 in presence of glucose measured after 48 hrs by visual analysis; assay type: functional
[4] = Inhibition HXT2 in Saccharomyces cerevisiae using 2DG as substrate assessed as inhibition of 2DG uptake at pH 6 preincubated for 10 min followed by substrate addition and measured after 10 min by glucose uptake-Glo assay
[5] = Inhibition HXT2 in Saccharomyces cerevisiae using 2DG as substrate assessed as reduction in 2DG uptake at pH 7.5 preincubated for 10 min followed by substrate addition and measured after 10 min by glucose uptake-Glo assay
Saccharomyces cerevisiae [6] = experiment: Inhibition HXT2 in Saccharomyces cerevisiae using 2DG as substrate assessed as reduction in 2DG uptake by measuring Km at 75 uM at pH 7.5 by Michaelis-Menten analysis (Rvb= 0.76 +/- 0.03 mM)
Saccharomyces cerevisiae [7] = experiment: Inhibition HXT2 in Saccharomyces cerevisiae using 2DG as substrate assessed as reduction in 2DG uptake by measuring decrease in Vmax at 75 uM at pH 7.5 by Michaelis-Menten analysis (Rvb= 211 +/- 9 nmol/min)
Saccharomyces cerevisiae [8] = experiment: Inhibition HXT2 in Saccharomyces cerevisiae using 2DG as substrate assessed as reduction in 2DG uptake by measuring Km at 125 uM at pH 7.5 by Michaelis-Menten analysis (Rvb= 0.76 +/- 0.03 mM)
Saccharomyces cerevisiae [9] = experiment: Inhibition HXT2 in Saccharomyces cerevisiae using 2DG as substrate assessed as reduction in 2DG uptake by measuring decrease in Vmax at 125 uM at pH 7.5 by Michaelis-Menten analysis (Rvb= 211 +/- 9 nmol/min)
Saccharomyces cerevisiae [10] = experiment: Ratio of antimicrobial activity against Saccharomyces cerevisiae BY4741 at pH 6 to antimicrobial activity against Saccharomyces cerevisiae BY4741 at pH 8; assay type: functional
Saccharomyces cerevisiae [11] = experiment: Ratio of antimicrobial activity against Saccharomyces cerevisiae BY4741 at pH 7 to antimicrobial activity against Saccharomyces cerevisiae BY4741 at pH 8; assay type: functional
Saccharomyces cerevisiae [12] = experiment: Antimicrobial activity against saccharomyces cerevisiae BY4741 assessed as inhibition of translation initiation by measuring polysme/monosome ratio at 1.5 mM at pH 7.5 incubated for 30 mins in presence of 2% glucose by polysome analysis (Rvb= 1.74); assay type: functional; settings: 0.5 h
Saccharomyces cerevisiae [13] = experiment: Antimicrobial activity against saccharomyces cerevisiae BY4741 assessed as inhibition of translation initiation by measuring polysme/monosome ratio at 1.5 mM at pH 7.5 incubated for 30 mins in presence of 8% glucose by polysome analysis (Rvb= 1.94); assay type: functional; settings: 0.5 h
[14] = Inhibition of actin polarization in Saccharomyces cerevisiae BY4741 at pH 7.5 incubated for 30 mins in presence of 2% glucose by rhodamine phalloidin staining based confocal microscopic analysis
[15] = Inhibition of actin polarization in Saccharomyces cerevisiae BY4741 at pH 7.5 incubated for 30 mins in presence of 8% glucose by rhodamine phalloidin staining based confocal microscopic analysis
Cell membrane [16] = experiment: Induction of membrane disruption in Saccharomyces cerevisiae BY4741 assessed as cell lysis by measuring increase in extracellular ATP level at pH 7.5 in presence of 2% glucose incubated for 30 mins
Cell membrane [17] = experiment: Induction of membrane disruption in Saccharomyces cerevisiae BY4741 assessed as cell lysis by measuring increase in extracellular ATP level at pH 7.5 in presence of 8% glucose incubated for 30 mins
Saccharomyces cerevisiae [18] = experiment: Inhibition HXT2 in Saccharomyces cerevisiae using 2DG as substrate assessed as reduction in 2DG uptake by measuring Km at 0.2 mM at pH 7.5 by Michaelis-Menten analysis (Rvb=0.76 +/- 0.08 mM)
Saccharomyces cerevisiae [19] = experiment: Inhibition HXT2 in Saccharomyces cerevisiae using 2DG as substrate assessed as reduction in 2DG uptake by measuring decrease in Vmax at 0.2 mM at pH 7.5 by Michaelis-Menten analysis (Rvb= 208 +/- 7 nmol/min)
Saccharomyces cerevisiae [20] = experiment: Inhibition HXT2 in Saccharomyces cerevisiae using 2DG as substrate assessed as reduction in 2DG uptake by measuring Km at 0.6 mM at pH 7.5 by Michaelis-Menten analysis (Rvb= 0.76 +/- 0.08 mM)
Saccharomyces cerevisiae [21] = experiment: Inhibition HXT2 in Saccharomyces cerevisiae using 2DG as substrate assessed as reduction in 2DG uptake by measuring decrease in Vmax at 0.6 mM at pH 7.5 by Michaelis-Menten analysis (Rvb= 208 +/- 7 nmol/min)
Saccharomyces cerevisiae [22] = experiment: Inhibition of endocytosis in Saccharomyces cerevisiae BY4741 from plasma to vacuoles assessed as formation of discrete granules at 25 mM incubated for 2 hrs by FM4-64 staining based analysis; assay type: functional, organism-based
Saccharomyces cerevisiae [23] = experiment: Antimicrobial activity against Saccharomyces cerevisiae BY4741 assessed as inhibition of microbial growth at 50 mM at pH 5 in presence of glucose measured after 48 hrs by visual analysis; assay type: functional, organism-based
[24] = test system: Saccharomyces cerevisiae BY4741; experiment: Inhibition of actin polarization in Saccharomyces cerevisiae BY4741 at pH 6 incubated for 30 mins in presence of 2% glucose by rhodamine phalloidin staining based confocal microscopic analysis
Cell membrane [25] = experiment: Induction of membrane disruption in Saccharomyces cerevisiae BY4741 at 50 mM incubated for 2 hrs by FM4-64 staining based analysis; assay type: subcellular
Saccharomyces cerevisiae [26] = experiment: Antimicrobial activity against Saccharomyces cerevisiae BY4741 assessed as inhibition of microbial growth at 60 mM at pH 6 in presence of glucose measured after 48 hrs by visual analysis; assay type: functional, organism-based

CN(C)CCCN1c2ccccc2Sc2ccc(Cl)cc21 [CHLORPROMAZINE]
MIC (Saccharomyces cerevisiae [1]): 250 µM
MIC (Saccharomyces cerevisiae [2]): 31 µM
MIC (Saccharomyces cerevisiae [3]): 15 µM
IC50 [4]: 259 µM
IC50 [5]: 115 µM
Km (Saccharomyces cerevisiae [6]): 630 µM
Vmax (Saccharomyces cerevisiae [7]): 126 nmol/min
Km (Saccharomyces cerevisiae [8]): 710 µM
Vmax (Saccharomyces cerevisiae [9]): 63 nmol/min
Ratio (Saccharomyces cerevisiae [10]): 16
Ratio (Saccharomyces cerevisiae [11]): 2

CCN(CC)CCCC(C)Nc1c2ccc(Cl)cc2nc2ccc(OC)cc12 (stereo unspecified) [QUINACRINE]
MIC (Saccharomyces cerevisiae [1]): 50000 µM
MIC (Saccharomyces cerevisiae [2]): 2.5 µM
MIC (Saccharomyces cerevisiae [3]): 83 µM
Ratio (Saccharomyces cerevisiae [12]): 1.53
Ratio (Saccharomyces cerevisiae [13]): 1.69
IC50 [14]: 1000 µM
IC50 [15]: 1600 µM
Activity (Cell membrane [16]): 21.6 mM
Activity (Cell membrane [17]): 37 mM
IC50 [4]: 3490 µM
IC50 [5]: 370 µM
Km (Saccharomyces cerevisiae [18]): 770 µM
Vmax (Saccharomyces cerevisiae [19]): 158 nmol/min
Km (Saccharomyces cerevisiae [20]): 750 µM
Vmax (Saccharomyces cerevisiae [21]): 113 nmol/min
inhibition (Saccharomyces cerevisiae [22]): Active
Ratio (Saccharomyces cerevisiae [10]): 600
Ratio (Saccharomyces cerevisiae [11]): 30
Activity (Saccharomyces cerevisiae [23]): inactive
inhibition [24]: inactive
Activity (Cell membrane [25]): Active

CCN(CC)CCCC(C)Nc1ccnc2cc(Cl)ccc12 (stereo unspecified) [CHLOROQUINE]
MIC (Saccharomyces cerevisiae [2]): 15000 µM
MIC (Saccharomyces cerevisiae [3]): 520 µM
Ratio (Saccharomyces cerevisiae [11]): 30
Activity (Saccharomyces cerevisiae [26]): inactive
